Among the data in ChEMBL document CHEMBL1155520, “Novel 8a-aza-8a-homoerythromycin--4''-(3-substituted-amino)propionates with broad spectrum antibacterial activity” (2010) are MIC values, retold here.

Format in all cases: functional
Assay [1] concerns Staphylococcus aureus. In words: Antimicrobial activity against macrolide-sensitive Staphylococcus aureus ATCC 13709.
In assay [2] the test system is Streptococcus pneumoniae. Kind of assay: Antimicrobial activity against macrolide-sensitive Streptococcus pneumoniae SPO 30.
Assay [3] has as its system Streptococcus pyogenes. In words: Antimicrobial activity against macrolide-sensitive Streptococcus pyogenes 3665.
The test system of assay [4] is Streptococcus pneumoniae. In words: Antimicrobial activity against macrolide-resistant Streptococcus pneumoniae Ci137.
Assay [5] relates to Streptococcus pyogenes. Kind of assay: Antimicrobial activity against inducible macrolide, lincosamide, streptogramin-resistant Streptococcus pyogenes Finland 11.
The subject of assay [6] is Streptococcus pneumoniae. Kind of assay: Antimicrobial activity against inducible macrolide and constitutive lincosamide, streptogramin-resistant Streptococcus pneumoniae 4636.
The subject of another assay is Haemophilus influenzae. Kind of assay: Antimicrobial activity against Haemophilus influenzae ATCC 49247.
Assay [7] concerns Streptococcus pneumoniae. In words: Antimicrobial activity against inducible macrolide, lincosamide, streptogramin-resistant Streptococcus pneumoniae 134 GRM.
The subject of assay [8] is Streptococcus pneumoniae. In words: Antimicrobial activity against inducible macrolide and constitutive lincosamide, streptogramin-resistant Streptococcus pneumoniae 58 Spain.
In assay [9] the test system is Streptococcus pyogenes. Kind of assay: Antimicrobial activity against inducible macrolide-resistant Streptococcus pyogenes Finland 3.
The test system of assay [10] is Streptococcus pyogenes. Kind of assay: Antimicrobial activity against inducible macrolide and constitutive lincosamide, streptogramin-resistant Streptococcus pyogenes 166 GR-micro.
Assay [11] has as its system Staphylococcus aureus. In words: Antimicrobial activity against macrolide-sensitive Staphylococcus aureus PK1.

In brackets after ≈: the same amount, converted by molar mass. Where only a bound is given, the exact number is not on record here.

With `CC[C@H]1OC(=O)[C@H](C)[C@@H](O[C@H]2C[C@@](C)(OC)[C@@H](OC(=O)CCNCC(=O)Nc3cccc4ncccc34)[C@H](C)O2)[C@H](C)[C@@H](O[C@@H]2O[C@H](C)C[C@H](N(C)C)[C@H]2O)[C@](C)(OC)C[C@@H](C)NC(=O)[C@H](C)[C@@H](O)[C@]1(C)O`, the MIC with Staphylococcus aureus [1] is 8 mg/L (≈ 7.86 µM); against Streptococcus pneumoniae [2], less than 0.13 mg/L; against Streptococcus pyogenes [3], 0.25 mg/L (≈ 0.246 µM); in the assay with Streptococcus pneumoniae [4] it was 16 mg/L (≈ 15.7 µM); against Streptococcus pyogenes [5], 32 mg/L (≈ 31.4 µM); with Streptococcus pneumoniae [6] it was more than 32 mg/L. Besides, the MIC against Haemophilus influenzae was more than 32 mg/L.

Regarding `CC[C@H]1OC(=O)[C@H](C)[C@@H](O[C@H]2C[C@@](C)(OC)[C@@H](OC(=O)CCNCC(=O)Nc3ccc4cccnc4c3)[C@H](C)O2)[C@H](C)[C@@H](O[C@@H]2O[C@H](C)C[C@H](N(C)C)[C@H]2O)[C@](C)(OC)C[C@@H](C)NC(=O)[C@H](C)[C@@H](O)[C@]1(C)O`, the MIC against Staphylococcus aureus [1] was 2 mg/L (≈ 1.96 µM); with Streptococcus pneumoniae [2], less than 0.13 mg/L; in the assay on Streptococcus pyogenes [3] it was less than 0.13 mg/L; with Streptococcus pneumoniae [4], 4 mg/L (≈ 3.93 µM); in the assay with Streptococcus pyogenes [5], 16 mg/L (≈ 15.7 µM); against Streptococcus pneumoniae [6] it was more than 32 mg/L. The MIC against Haemophilus influenzae is more than 32 mg/L.

As for `CC[C@H]1OC(=O)[C@H](C)[C@@H](O[C@H]2C[C@@](C)(OC)[C@@H](OC(=O)CCNCCNc3cncc([N+](=O)[O-])c3)[C@H](C)O2)[C@H](C)[C@@H](O[C@@H]2O[C@H](C)C[C@H](N(C)C)[C@H]2O)[C@](C)(OC)C[C@@H](C)NC(=O)[C@H](C)[C@@H](O)[C@]1(C)O`, the MIC was 0.25 mg/L (≈ 0.25 µM) with Staphylococcus aureus [1]; less than 0.13 mg/L against Streptococcus pneumoniae [2]; less than 0.13 mg/L against Streptococcus pyogenes [3]; 0.5 mg/L (≈ 0.5 µM) in the assay with Streptococcus pneumoniae [4]; 0.25 mg/L (≈ 0.25 µM) in the assay with Streptococcus pyogenes [5]; 4 mg/L (≈ 4 µM) in the assay on Streptococcus pneumoniae [6]. This compound showed an MIC against Haemophilus influenzae of 4 mg/L (≈ 4 µM).

On to `CC[C@H]1OC(=O)[C@H](C)[C@@H](O[C@H]2C[C@@](C)(OC)[C@@H](OC(=O)CCN3CCN(c4cc5c(cc4F)c(=O)ccn5C4CC4)CC3)[C@H](C)O2)[C@H](C)[C@@H](O[C@@H]2O[C@H](C)C[C@H](N(C)C)[C@H]2O)[C@](C)(O)C[C@@H](C)NC(=O)[C@H](C)[C@@H](O)[C@]1(C)O`, for which the MIC was 1 mg/L (≈ 0.917 µM) in the assay with Staphylococcus aureus [1]; less than 0.13 mg/L in the assay with Streptococcus pneumoniae [4]; 0.5 mg/L (≈ 0.459 µM) with Streptococcus pyogenes [5]; 8 mg/L (≈ 7.34 µM) with Haemophilus influenzae; more than 32 mg/L in the assay on Streptococcus pneumoniae [7]; more than 32 mg/L in the assay on Streptococcus pneumoniae [8].

For `CC[C@H]1OC(=O)[C@H](C)[C@@H](O[C@H]2C[C@@](C)(OC)[C@@H](OC(=O)CCN3CCN(c4cc5c(cc4F)c(=O)ccn5C4CC4)CC3)[C@H](C)O2)[C@H](C)[C@@H](O[C@@H]2O[C@H](C)C[C@H](N(C)C)[C@H]2O)[C@](C)(OC)C[C@@H](C)NC(=O)[C@H](C)[C@@H](O)[C@]1(C)O`, the MIC in the assay on Streptococcus pyogenes [9] was less than 0.13 mg/L; with Staphylococcus aureus [1], 1 mg/L (≈ 0.905 µM); against Streptococcus pneumoniae [4], less than 0.13 mg/L; with Streptococcus pyogenes [5] it was 1 mg/L (≈ 0.905 µM); in the assay with Haemophilus influenzae it was 8 mg/L (≈ 7.24 µM); with Streptococcus pneumoniae [7], more than 64 mg/L. Besides, the results for the MIC in the assay with Streptococcus pneumoniae [8], in the assay on Streptococcus pyogenes [10] and in the assay with Staphylococcus aureus [11] were 64 mg/L (≈ 58 µM), more than 64 mg/L and 8 mg/L (≈ 7.24 µM), respectively.

Regarding `CC[C@H]1OC(=O)[C@H](C)[C@@H](O[C@H]2C[C@@](C)(OC)[C@@H](OC(=O)CCN3CCN(c4cc5c(cc4F)c(=O)c(C(=O)O)cn5C4CC4)CC3)[C@H](C)O2)[C@H](C)[C@@H](O[C@@H]2O[C@H](C)C[C@H](N(C)C)[C@H]2O)[C@](C)(OC)C[C@@H](C)NC(=O)[C@H](C)[C@@H](O)[C@]1(C)O`, the MIC is 0.5 mg/L (≈ 0.435 µM) with Streptococcus pyogenes [9]; 1 mg/L (≈ 0.871 µM) in the assay on Staphylococcus aureus [1]; less than 0.13 mg/L against Streptococcus pneumoniae [4]; 0.5 mg/L (≈ 0.435 µM) in the assay with Streptococcus pyogenes [5]; 1 mg/L (≈ 0.871 µM) against Haemophilus influenzae; 8 mg/L (≈ 6.97 µM) against Streptococcus pneumoniae [7]. Moreover, the MIC in the assay with Streptococcus pneumoniae [8] is 16 mg/L (≈ 13.9 µM); in the assay with Streptococcus pyogenes [10], 8 mg/L (≈ 6.97 µM); with Staphylococcus aureus [11], 2 mg/L (≈ 1.74 µM).

Turning to `CC[C@H]1OC(=O)[C@H](C)[C@@H](O[C@H]2C[C@@](C)(OC)[C@@H](OC(=O)CCNCCNc3cc4c(cc3F)c(=O)c(C(=O)O)cn4C3CC3)[C@H](C)O2)[C@H](C)[C@@H](O[C@@H]2O[C@H](C)C[C@H](N(C)C)[C@H]2O)[C@](C)(O)C[C@@H](C)NC(=O)[C@H](C)[C@@H](O)[C@]1(C)O`, the MIC was 0.25 mg/L (≈ 0.226 µM) in the assay on Streptococcus pyogenes [9]; 0.25 mg/L (≈ 0.226 µM) in the assay with Staphylococcus aureus [1]; less than 0.13 mg/L in the assay on Streptococcus pneumoniae [4]; less than 0.13 mg/L in the assay on Streptococcus pyogenes [5]; less than 0.13 mg/L in the assay with Streptococcus pneumoniae [7]; less than 0.13 mg/L against Streptococcus pneumoniae [8]. Besides, the MIC is 0.25 mg/L (≈ 0.226 µM) with Streptococcus pyogenes [10] and 0.5 mg/L (≈ 0.451 µM) against Staphylococcus aureus [11].

On to `CC[C@H]1OC(=O)[C@H](C)[C@@H](O[C@H]2C[C@@](C)(OC)[C@@H](OC(=O)CCNCCNc3cc4c(cc3F)c(=O)c(C(=O)O)cn4C3CC3)[C@H](C)O2)[C@H](C)[C@@H](O[C@@H]2O[C@H](C)C[C@H](N(C)C)[C@H]2O)[C@](C)(OC)C[C@@H](C)NC(=O)[C@H](C)[C@@H](O)[C@]1(C)O`, for which the MIC against Streptococcus pyogenes [9] is 0.5 mg/L (≈ 0.445 µM); in the assay on Staphylococcus aureus [1], less than 0.13 mg/L; in the assay on Streptococcus pneumoniae [4] it was less than 0.13 mg/L; in the assay on Streptococcus pyogenes [5], less than 0.13 mg/L; against Haemophilus influenzae, 4 mg/L (≈ 3.56 µM); against Streptococcus pneumoniae [7] it was less than 0.13 mg/L. In addition, the MIC was less than 0.13 mg/L with Streptococcus pneumoniae [8], 0.25 mg/L (≈ 0.223 µM) in the assay with Streptococcus pyogenes [10] and less than 0.13 mg/L against Staphylococcus aureus [11].

Regarding `NCCNc1cc2c(cc1F)c(=O)c(C(=O)O)cn2C1CC1`, the MIC against Streptococcus pyogenes [9], with Staphylococcus aureus [1], in the assay with Streptococcus pneumoniae [4], against Streptococcus pyogenes [5], in the assay on Haemophilus influenzae and against Streptococcus pneumoniae [7] was more than 64 mg/L in each case. The MIC in the assay with Streptococcus pneumoniae [8], against Streptococcus pyogenes [10] and in the assay with Staphylococcus aureus [11] was more than 64 mg/L each time.

Take `CC[C@H]1OC(=O)[C@H](C)[C@@H](O[C@H]2C[C@@](C)(OC)[C@@H](O)[C@H](C)O2)[C@H](C)[C@@H](O[C@@H]2O[C@H](C)C[C@H](N(C)C)[C@H]2O)[C@](C)(O)C[C@@H](C)NC(=O)[C@H](C)[C@@H](O)[C@]1(C)O`: the MIC in the assay on Streptococcus pyogenes [9] was 32 mg/L (≈ 42.7 µM); in the assay with Staphylococcus aureus [1], 1 mg/L (≈ 1.34 µM); with Streptococcus pneumoniae [2], less than 0.13 mg/L; against Streptococcus pyogenes [3], less than 0.13 mg/L; in the assay with Streptococcus pneumoniae [4], 32 mg/L (≈ 42.7 µM); with Streptococcus pyogenes [5] it was 16 mg/L (≈ 21.4 µM). In addition, the MIC with Streptococcus pneumoniae [6] was more than 64 mg/L; with Haemophilus influenzae it was 2 mg/L (≈ 2.67 µM); with Streptococcus pneumoniae [7] it was more than 64 mg/L; in the assay on Streptococcus pneumoniae [8], more than 64 mg/L; in the assay with Streptococcus pyogenes [10], more than 64 mg/L; in the assay with Staphylococcus aureus [11], more than 64 mg/L.

For `CC[C@H]1OC(=O)[C@H](C)[C@@H](O[C@H]2C[C@@](C)(OC)[C@@H](O)[C@H](C)O2)[C@H](C)[C@@H](O[C@@H]2O[C@H](C)C[C@H](N(C)C)[C@H]2O)[C@](C)(OC)C[C@@H](C)NC(=O)[C@H](C)[C@@H](O)[C@]1(C)O`, the MIC against Streptococcus pyogenes [9] was 32 mg/L (≈ 41.9 µM); against Staphylococcus aureus [1], 0.5 mg/L (≈ 0.655 µM); in the assay on Streptococcus pneumoniae [2] it was less than 0.13 mg/L; against Streptococcus pyogenes [3], less than 0.13 mg/L; in the assay with Streptococcus pneumoniae [4], 16 mg/L (≈ 21 µM); against Streptococcus pyogenes [5], 8 mg/L (≈ 10.5 µM). Also, the MIC against Streptococcus pneumoniae [6] was more than 64 mg/L; with Haemophilus influenzae, 4 mg/L (≈ 5.24 µM); against Streptococcus pneumoniae [7] it was more than 64 mg/L; in the assay on Streptococcus pneumoniae [8], more than 64 mg/L; in the assay with Streptococcus pyogenes [10], more than 64 mg/L; with Staphylococcus aureus [11], more than 64 mg/L.

`CC[C@H]1OC(=O)[C@H](C)[C@@H](O[C@H]2C[C@@](C)(OC)[C@@H](O)[C@H](C)O2)[C@H](C)[C@@H](O[C@@H]2O[C@H](C)C[C@H](N(C)C)[C@H]2O)[C@](C)(O)C[C@@H](C)CN(C)[C@H](C)[C@@H](O)[C@]1(C)O` [AZITHROMYCIN]: the MIC with Streptococcus pyogenes [9] is 8 mg/L (≈ 10.7 µM); in the assay on Staphylococcus aureus [1], 0.5 mg/L (≈ 0.668 µM); against Streptococcus pneumoniae [2], less than 0.13 mg/L; against Streptococcus pyogenes [3], less than 0.13 mg/L; in the assay on Streptococcus pneumoniae [4], 8 mg/L (≈ 10.7 µM); against Streptococcus pyogenes [5], 16 mg/L (≈ 21.4 µM). In addition, the MIC in the assay on Streptococcus pneumoniae [6] was more than 64 mg/L; in the assay on Haemophilus influenzae it was 1 mg/L (≈ 1.34 µM); with Streptococcus pneumoniae [7] it was more than 64 mg/L; against Streptococcus pneumoniae [8], more than 64 mg/L; with Streptococcus pyogenes [10], more than 64 mg/L; with Staphylococcus aureus [11], more than 64 mg/L.

`CC[C@H]1OC(=O)[C@H](C)C(=O)[C@H](C)[C@@H](O[C@@H]2O[C@H](C)C[C@H](N(C)C)[C@H]2O)[C@](C)(OC)C[C@@H](C)C(=O)[C@H](C)[C@H]2N(CCCCn3cnc(-c4cccnc4)c3)C(=O)O[C@]12C` [TELITHROMYCIN]: the MIC against Streptococcus pyogenes [9] was 0.5 mg/L (≈ 0.616 µM); with Staphylococcus aureus [1] it was less than 0.06 mg/L; in the assay on Streptococcus pneumoniae [4], 0.25 mg/L (≈ 0.308 µM); in the assay with Streptococcus pyogenes [5] it was 0.06 mg/L (≈ 0.0739 µM); in the assay with Haemophilus influenzae, 2 mg/L (≈ 2.46 µM); with Streptococcus pneumoniae [7], 0.25 mg/L (≈ 0.308 µM). For the same compound, the MIC turned out to be 0.25 mg/L (≈ 0.308 µM) against Streptococcus pneumoniae [8], 16 mg/L (≈ 19.7 µM) in the assay on Streptococcus pyogenes [10] and 0.125 mg/L (≈ 0.154 µM) against Staphylococcus aureus [11].
